The term Ki denotes the dissociation constant of the complex between target and ligand, obtained from inhibition or displacement. A lower Ki goes with higher affinity.

The record followed here is ChEMBL document CHEMBL1124647, “Conformational analysis and molecular modeling of 1-phenyl-, 4-phenyl-, and 1-benzyl-1,2,3,4-tetrahydroisoquinolines as D1 dopamine receptor ligands” (J Med Chem, 1989).

For one assay, the target named is D(1A) dopamine receptor (Homo sapiens, UniProt P21728). Nature of the assay: Binding potency of compound for Dopamine receptor D1 by displacing [3H]SCH-23390 radioligand.
D(1A) dopamine receptor, sequence (P21728 whole entry): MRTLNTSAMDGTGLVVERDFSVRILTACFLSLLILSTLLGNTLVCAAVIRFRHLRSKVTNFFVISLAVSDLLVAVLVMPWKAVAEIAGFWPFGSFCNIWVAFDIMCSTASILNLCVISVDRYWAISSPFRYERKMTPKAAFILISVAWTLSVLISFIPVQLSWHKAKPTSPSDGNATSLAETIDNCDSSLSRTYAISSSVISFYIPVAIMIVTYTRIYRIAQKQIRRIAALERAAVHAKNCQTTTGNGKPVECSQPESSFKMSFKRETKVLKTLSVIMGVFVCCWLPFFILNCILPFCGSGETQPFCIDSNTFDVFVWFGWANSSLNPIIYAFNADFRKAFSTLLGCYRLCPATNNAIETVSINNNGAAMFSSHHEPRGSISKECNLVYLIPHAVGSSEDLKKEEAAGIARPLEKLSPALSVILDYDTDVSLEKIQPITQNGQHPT
The target in a further assay is D(2) dopamine receptor (Homo sapiens, UniProt P14416). Nature of the assay: Binding potency of compound for Dopamine receptor D2 by displacement of [3H]spiperone. (Loss of bound radioactivity is the signal in a displacement assay; it reports binding, not function.)
D(2) dopamine receptor, sequence (P14416 whole entry): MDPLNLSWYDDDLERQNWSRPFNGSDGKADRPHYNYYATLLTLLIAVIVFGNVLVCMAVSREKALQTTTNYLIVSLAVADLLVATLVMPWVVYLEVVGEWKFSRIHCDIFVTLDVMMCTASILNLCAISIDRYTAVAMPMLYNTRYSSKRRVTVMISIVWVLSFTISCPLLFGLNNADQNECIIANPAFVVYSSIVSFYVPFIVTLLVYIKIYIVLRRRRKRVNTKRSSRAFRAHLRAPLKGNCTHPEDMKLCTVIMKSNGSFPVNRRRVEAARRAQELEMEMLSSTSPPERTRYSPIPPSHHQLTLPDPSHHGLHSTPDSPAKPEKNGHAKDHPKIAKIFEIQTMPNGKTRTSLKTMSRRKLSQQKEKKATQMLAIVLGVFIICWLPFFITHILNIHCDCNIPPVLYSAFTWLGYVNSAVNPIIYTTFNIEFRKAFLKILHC
Assay [1] in a line: DSAC inhibitory potency obtained by the conversion of [32P]-ATP to [32P]-cAMP.

Molecules are shown by their SMILES.

In the case of `CN1CCc2cc(Cl)c(O)cc2[C@H]1c1ccccc1`, the results for the inhibition constant Ki at D(1A) dopamine receptor and at D(2) dopamine receptor were 447 nM and 19100 nM, respectively. Also, in assay [1], the “Log Ki” value is recorded as -6.25.
Turning to `CCCN1CCc2cc(Cl)c(O)cc2[C@@H]1c1ccccc1`, the figures for the Ki at D(1A) dopamine receptor and at D(2) dopamine receptor were 178 nM and 1910 nM, respectively. The “Log Ki” value in assay [1] is on record as -6.69.
Turning to `CN1Cc2cc(Cl)c(O)cc2[C@H](c2ccccc2)C1`, the Ki at D(1A) dopamine receptor was 87.1 nM; at D(2) dopamine receptor, 263 nM. Besides, in assay [1], the “Log Ki” value was -6.99.
For the compound `CN1CCc2cc(Cl)c(O)cc2[C@@H]1c1ccccc1`, the figures for the inhibition constant Ki at D(1A) dopamine receptor and on D(2) dopamine receptor were 6.61 nM and 1860 nM, respectively. For the same compound, in assay [1], the “Log Ki” value was -8.18.
For the compound `Oc1cc2c(cc1Cl)CNC[C@H]2c1ccccc1`, the inhibition constant (Ki) was 282 nM on D(1A) dopamine receptor and 1820 nM on D(2) dopamine receptor. For the same compound, the “Log Ki” value in assay [1] is given as -6.2.
In the same order, the values of `CN1CCc2cc(Cl)c(O)cc2[C@@H]1Cc1ccccc1` are 26.9 nM, 145 nM and -8.2.
`Oc1cc2c(cc1Cl)CCN[C@H]2c1ccccc1`: the Ki on D(1A) dopamine receptor is 141 nM; on D(2) dopamine receptor, 3720 nM. The “Log Ki” value in assay [1] was -6.96.
On to `CN1CCc2cc(Cl)c(O)cc2[C@@H](c2ccccc2)C1` [SCH-23390], for which the “Log Ki” value in assay [1] was -9.33.
